Experimental data from PMC5501184 (Journal of medicinal chemistry, 2017).
Like-named read-outs stand apart in the source and are kept apart here.

Assays:
[1] = system: mouse; details: cited from earlier work
[2] = metabolomic study; cited from earlier work
[3] = target: T1, hDAT (Homo sapiens, UniProt Q01959); details: 10 μM; [^3H]24 binding, PDSP; ref Janowsky et al.[3]; cited from earlier work
[4] = system: cytochrome P450 (5 isozymes); details: cited from earlier work
[5] = cited from earlier work
[6] = target: mDAT (Mus musculus, UniProt Q61327); assay: [^125I]23 binding to mDAT expressed in HEK-293 cells
[7] = target: T1, hDAT; details: read-out: Kd of [^125I]23 at hDAT; no modulator; cited from earlier work

T1 sequence (Q01959 whole entry): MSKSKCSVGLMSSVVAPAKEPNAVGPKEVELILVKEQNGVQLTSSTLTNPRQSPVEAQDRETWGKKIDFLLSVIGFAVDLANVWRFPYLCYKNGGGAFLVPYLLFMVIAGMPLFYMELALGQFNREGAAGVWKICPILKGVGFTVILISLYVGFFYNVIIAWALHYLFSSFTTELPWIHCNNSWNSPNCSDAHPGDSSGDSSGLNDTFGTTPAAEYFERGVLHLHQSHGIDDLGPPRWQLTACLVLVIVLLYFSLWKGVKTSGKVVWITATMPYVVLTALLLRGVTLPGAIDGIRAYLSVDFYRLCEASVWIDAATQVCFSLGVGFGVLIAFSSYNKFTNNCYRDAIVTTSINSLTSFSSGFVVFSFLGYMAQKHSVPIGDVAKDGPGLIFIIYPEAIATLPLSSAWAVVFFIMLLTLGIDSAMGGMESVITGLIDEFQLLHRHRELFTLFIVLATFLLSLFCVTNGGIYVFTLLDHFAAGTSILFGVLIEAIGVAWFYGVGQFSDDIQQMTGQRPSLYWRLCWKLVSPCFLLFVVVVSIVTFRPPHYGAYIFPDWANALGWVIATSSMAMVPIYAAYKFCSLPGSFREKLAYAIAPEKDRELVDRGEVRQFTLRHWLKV
mDAT, sequence (Q61327 whole entry): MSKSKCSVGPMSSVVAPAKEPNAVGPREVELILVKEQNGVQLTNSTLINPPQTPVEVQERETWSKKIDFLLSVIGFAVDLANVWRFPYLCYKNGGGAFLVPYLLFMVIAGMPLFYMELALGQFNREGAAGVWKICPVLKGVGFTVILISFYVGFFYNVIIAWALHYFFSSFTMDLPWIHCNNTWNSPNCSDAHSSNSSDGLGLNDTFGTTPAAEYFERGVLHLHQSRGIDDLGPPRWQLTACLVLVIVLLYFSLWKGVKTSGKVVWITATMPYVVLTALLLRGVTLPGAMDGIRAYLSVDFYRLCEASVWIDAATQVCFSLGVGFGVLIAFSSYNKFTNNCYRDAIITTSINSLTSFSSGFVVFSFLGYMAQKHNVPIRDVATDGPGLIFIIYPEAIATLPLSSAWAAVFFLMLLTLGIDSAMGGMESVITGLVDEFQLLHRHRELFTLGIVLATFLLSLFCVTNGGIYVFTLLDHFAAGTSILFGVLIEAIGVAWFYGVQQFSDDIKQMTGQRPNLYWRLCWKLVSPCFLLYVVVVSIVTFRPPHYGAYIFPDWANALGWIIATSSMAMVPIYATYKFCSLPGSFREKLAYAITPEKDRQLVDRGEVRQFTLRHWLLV

Compound | locomotor activity ([1]; 10 mg/kg) | locomotor activity ([1]; 30 mg/kg) | tolerability in vivo [2] | hDAT Binding Inhibition, % of control [3] | inhibition of cytochrome P450 (5 isozymes) [4] | stability in the presence of liver microsomes, plasma and simulated body fluids [5] | Kd [6] | Kd [7]
CNC(=O)[C@@]12C[C@@H]1[C@@H](n1cnc3c(NC)nc(C#Cc4ccc(Cl)s4)nc31)[C@H](O)[C@@H]2O [compound 1, (1S,2R,3S,4R,5S)-4-(2-((5-chlorothiophen-2-yl)ethynyl)-6-(methylamino)-9H-purin-9-yl)-2,3-dihydroxy-N-methylbicyclo[3.1.0]hexane-1-carboxamide] | did not significantly stimulate locomotor activity | reduced locomotor activity | well tolerated | NE (no effect) | do not inhibit | stable |  | 
COC(=O)[C@H]1[C@@H](c2ccc(I)cc2)CC2CC[C@H]1N2C [compound 23, methyl (1R,2S,3S)-3-(4-iodophenyl)-8-methyl-8-azabicyclo[3.2.1]octane-2-carboxylate] |  |  |  |  |  |  | 3.9 nM | 1.3 nM
